# In a melting point compilation (Tetko et al.; mined from patent text by program, amines drawn as free bases though some values may be those of a salt):
row,SMILES,melting point
1,CC(=Cc1cnc2nc(N)nc(N)c2c1)c1ccc(C(=O)OC(C)(C)C)cc1,> 300 °C
2,CCc1cc(Br)cc(NC(=O)C=NO)c1,176 to 178 °C
3,CCOC(=O)CN1C(=O)COc2cc(F)ccc21,90 to 91.5 °C
4,CCCCn1nc2c(N)nc3c(c2c1CCS(=O)(=O)CCC)CCCC3,173 to 175 °C
5,COc1ccnc(CCc2nc3cc(Br)cnc3[nH]2)c1,207 to 209 °C
6,O=C(CS(=O)(=O)c1ccccc1)c1ccc(F)nc1,127 to 128 °C
7,CC(=O)OC1CSC(Oc2ccc(C#N)nc2)C(OC(C)=O)C1OC(C)=O (stereo unspecified),147 °C
8,CCOC(=O)C1=NOC2(CCC(C(C)(C)CC)CC2)C1 (stereo unspecified),82 to 87 °C
9,Nc1nc2c(sc(=O)n2Cc2ccc(Cl)cc2)c(=O)[nH]1,> 320 °C
10,COCCCn1c(C=O)c(Br)c2c3c(c(-c4ccccc4Cl)cc21)C(=O)NC3=O,206 to 207 °C
11,COc1ccc(-c2cc(=O)c3c(OCC(O)CO)cc(OCC(O)CO)cc3o2)cc1O (stereo unspecified),204 °C
12,CC(=O)CC(C)(C)Cn1c(C)nc2c(N)nc3ccccc3c21,223 to 225 °C
13,COCOc1c(OC)cc(C=O)cc1OC,52 to 53 °C
14,COC1=C(OC)C(=O)C2=C(CC(CCCCCCCCN3CCN(Cc4ccccc4)CC3)(c3ccccc3)C2)C1=O,78 to 80 °C
15,O=c1ccn(-c2cccc(Oc3nc4ccccc4[nH]3)c2)nc1-c1ccnn1-c1ccccc1,149 to 150 °C
16,CC(C)(C)C(S)(CC#N)C(C)(C)C,154 to 155 °C
17,CCOC(=O)CNC(=O)N(C(=O)NCC(=O)OCC)c1ccc(C(=O)/C=C/c2cc(OC)c(OC)c(-c3cccs3)c2)cc1,83 to 86 °C
18,CN(C)C1=NS(=O)(=O)N=C1N[C@@H]1c2cc(OC(F)(F)F)ccc2OC(C)(C)[C@H]1O,135 to 140 °C
19,N#CC1(c2ccc(F)cc2)CCC(N2CCN(c3cccnn3)CC2)CC1 (stereo unspecified),189 °C
20,Cc1nnnn1-c1ncccc1C(=O)O,178 to 180 °C
21,CNCCNC(=O)c1nc(Cl)c(N)nc1N,142 to 143 °C
22,CSC(C)(C)C(=O)N[C@@H](CS)C(=O)O,110 to 112 °C
23,CN(C)CCc1[nH]c2ccccc2c1CC#N,122 to 127 °C
24,COC(=O)c1ccc(NC2COC(=O)C2)cc1 (stereo unspecified),136 to 138 °C
25,CC(=O)OCc1cc(=O)n2c(ccn2-c2ccccc2)n1,172 to 175 °C
26,COc1ccc(OCC(=O)O)c(OC)c1OC,102 to 104 °C

row,SMILES,melting point
1,O=C(C=Cc1ccc(Cl)cc1)NN1CC(=O)NC1=O,230 to 235 °C
2,CC(C)(C)OC(=O)N(CCCCCCN1C(=O)c2ccccc2C1=O)CCN(CCCCCCN1C(=O)c2ccccc2C1=O)C(=O)OC(C)(C)C,96 °C
3,O=C(C=Cc1ccc(Oc2ccccc2)cc1)c1ccc(F)cc1,116 °C
4,O=C(CC1CCCCC1)Nc1c(Cl)ccc2nc(N3CCC(NS(=O)(=O)C(F)(F)F)CC3)ccc12,187 to 189 °C
5,COC(=O)C(Cc1ccccc1)NC(=O)c1cc2cc(Cl)ccc2[nH]1 (stereo unspecified),156 to 157 °C
6,Cc1cc2c(cc1Cl)C(c1ccccc1)(N1CCOCC1)ON2C(C)(C)C (stereo unspecified),131 to 133 °C
7,O=C1c2cccc(Cl)c2C(=O)N1CCN1CCC(c2noc3cc(F)ccc23)CC1,170 to 171 °C
8,C[C@@H](NC(=O)c1csc(-c2ccccc2)n1)[C@](O)(Cn1cncn1)c1ccc(F)cc1F,174 to 175 °C
9,CC(C)c1cccc(NC(=N)Nc2cccc(C(C)C)c2)c1,118 to 119 °C
10,CCOC(=O)c1ncn2c1CNC(=O)c1cc(OC)ccc1-2,240 °C
11,O=Cc1ccc(Cl)cc1C1(c2ccccc2F)OCCO1,103 to 105 °C
12,COC(=O)CCC(C(=O)C=Cc1ccc(O)c(OC(F)(F)F)c1)C(=O)C=Cc1ccc(O)c(OC(F)(F)F)c1 (stereo unspecified),142 to 143 °C
13,c1cc(-c2ccsc2)ccn1,138 °C
14,CCc1cc2cc(O)ccc2c(Oc2ccc(/C=C/C(=O)N3CCN(C)CC3)cc2)c1-c1ccccc1,195 to 196 °C
15,C#CCOc1cc(-n2nc(C)ccc2=O)c(F)cc1C#N,180 °C
16,CCC(=O)OCc1c2ccccc2cc2ccccc12,79 to 80 °C
17,Fc1cc(F)cc(C=Cc2cc3cc4ccccc4cc3s2)c1,265 to 267 °C
18,N#Cc1ccc(CN2CCNC2=O)cc1,127 to 133 °C
19,C=CCS(=O)c1ncc(Cl)cn1 (stereo unspecified),82 °C
20,CCOC(=O)CC(=CNc1ncccc1C)C(=O)OCC,62 °C
21,Cn1cc2c(n1)Nc1ccc(Cl)cc1NC2=O,> 260 °C
22,c1ccc(COc2ccc(C(c3ccc(OCc4ccccc4)cc3)n3cncn3)cc2)cc1,134 to 137 °C
23,C#CCON=C(C(C)=NOCc1ccccc1C(=COC)C(=O)OC)c1ccc(F)cc1,91 to 93 °C
24,C/C(=C\c1ccc(CO)cc1)c1ccc2c(c1)C(C)(C)CCO2,80 to 81 °C
25,Cn1nc(O)c(Cl)c1C(F)(F)F,136 to 140 °C
